The test system of series [1] is cortisol-producing adrenal adenoma cultures. In words: Cortisol production in primary cortisol-producing adrenal adenoma cultures. Format: cell-based, human. The method, then: (§1) To obtain primary cultures, adrenal specimens (adrenocortical adenomas, adrenal hyperplasias and adrenocortical carcinomas) were collected after adrenalectomy at the department of Surgery, Erasmus University Medical Center, Rotterdam, the Netherlands, between April 2016 and May 2018. The study was conducted under guidelines that have been approved by the Medical Ethics Committee of the Erasmus Medical Center and informed consent was obtained from all patients. Immediately after surgery, specimens were minced into small pieces of 2-3 mm^3, washed in culture medium and centrifuged for 5 minutes at 600 g. The tissue was stored overnight in culture medium at 4° C., where after the tissue was centrifuged again and the supernatant was removed. Fragments were dissociated using 10-25 ml collagenase type 1 (2 mg/ml: Sigma-Aldrich), followed by incubation at 37° C. for up to two hours. Ficoll (GE healthcare) density gradient separation was used once or twice as required in order to separate contaminating red blood cells from the tumor cells. Cell viability and cell amount were counted by trypan blue exclusion. Dissociated cells were plated at a density of 10^5 cells per well. ACTH-secreting corticotroph pituitary adenoma tissue from patients with Cushing's disease (n=2) was available after transsphenoidal surgery. Single-cell suspensions of the pituitary adenoma tissues were prepared as previously described in detail.
(§2) Owing to a limited number of cells obtained from the specimens, not all experiments were carried out in every primary culture.
(§3) Cortisol concentrations were measured in the supernatant using a chemiluminescence immunoassay system (Immulite 2000XPi; Siemens DPC Inc., Los Angeles, Calif., USA). In addition, we carried out multi-steroid analysis by liquid chromatography/mass spectrometry (LC/MS-MS) to accurately quantify androstenedione, corticosterone, cortisol, 11-deoxycortisol, DHEA, DHEAS, progesterone, 17-hydroxyprogesterone, and testosterone. Concentrations that were tested on the LC/MS-MS were closest to 50% inhibition or maximal inhibition of cortisol as determined by the immunoassay. Steroids were quantified with respect to a calibration series, with internal standards. Steroids were quantified on a Xevo TQS LC-MS/MS (Waters Chromatography).
(§4) Statistical analysis was performed using Graphpad Prism 6.0 (Graphpad Software, San Diego, CA). Non-linear regression curve fitting program was used to calculate the half maximal inhibitory concentrations (IC50) on cortisol production. Effects of both compounds on the steroid profile were measured as absolute change compared to control and compared using the Student's t-test. When assessing differences between effects of both compounds, the percentage change was evaluated and compared in order to correct for differences in the vehicle treated control cells. Values of P<0.05 were considered statistically significant and data are presented as mean SEM.

For series [2], the system named is EAS associated adrenal hyperplasia cultures. In words: Cortisol production in primary EAS associated adrenal hyperplasia cultures. Format: cell-based, human. On the procedure:
as §1, §2, §3, §4

The subject of another series is AtT20 cells. Kind of series: ACTH secretion corrected for cell amount in AtT20 cells. The series is classed as cell-based, mouse. On the procedure: (§5) Human adrenocortical carcinoma HAC15 and mouse corticotroph AtT20 cells were used, purchased as a kind gift by Dr. W. Rainey, and obtained from Dr. J. Tooze (European Organization for Molecular Biology), respectively. Both cell lines were cultured in 75 cm^2 flasks at 37° C. in a humidified incubator (Greiner Bio-One, Alphen a/d Rijn, the Netherlands) at 5% CO2. Dulbecco's Modified Eagle Medium F12 containing 5% fetal calf serum was used for HAC15, whereas AtT20 cells were cultured in Dulbecco's minimal essential medium (DMEM) supplemented with 10% fetal calf serum. Both mediums were supplemented with L-glutamine (2 mmol/L) and penicillin (10^5 U/L). Short tandem repeat (str) profiling using a Powerplex Kit (Promega, Leiden, the Netherlands) of HAC15 and AtT20 gave results consistent with the ATCC database, confirming the identity of both cell lines. Medium and supplements were obtained from Invitrogen, Breda, the Netherlands. Once a week, cells were harvested with trypsin (0.05%)-EDTA (0.53 mM) and resuspended in culture medium. Levoketoconazole (COR-003) and racemic ketoconazole (both from Cortendo AB) were dissolved in absolute ethanol (EtOH), according to manufacturer's instructions, and stored at −20° C. at a stock concentration of […]. At the start of each experiment, both drugs were freshly prepared and diluted in EtOH in the correct concentrations. Synacten (synthetic ACTH, Novartis Pharma A.G.) stock concentration was stored at 4° C. and dissolved in culture medium at the day of use. The final concentrations of ACTH were chosen based on a dose-response curve in HAC15 cells and previously reported studies in the literature. For HAC15, 200,000 and 100,000 cells were plated in 0.5 ml medium in 24 well plates for experiments of 1 and 3 days, respectively. […]
At the end of the AtT20 and primary pituitary adenoma culture experiments, medium was collected and supplemented with 1% of the protease inhibitor Trasylol to prevent degradation of ACTH. ACTH was measured using a commercially available, nonisotopic automatic chemiluminescence system (DPC Immulite).

The subject of the next series is HAC15 cells. In words: Cortisol production by HAC15 cells (immunoassay). The series is classed as cell-based, Human. The note with it: HAC15, after 3 days of treatment (FIG. 1B). The method, then: as §5
Cortisol concentrations were measured in the supernatant using a chemiluminescence immunoassay system (Immulite 2000XPi; Siemens DPC Inc., Los Angeles, Calif., USA). In addition, we carried out multi-steroid analysis by liquid chromatography/mass spectrometry (LC/MS-MS) to accurately quantify androstenedione, corticosterone, cortisol, 11-deoxycortisol, DHEA, DHEAS, progesterone, 17-hydroxyprogesterone, and testosterone. […] Steroids were quantified with respect to a calibration series, with internal standards. Steroids were quantified on a Xevo TQS LC-MS/MS (Waters Chromatography).
Statistical analysis was performed using Graphpad Prism 6.0 (Graphpad Software, San Diego, CA). […] Effects of both compounds on the steroid profile were measured as absolute change compared to control and compared using the Student's t-test. When assessing differences between effects of both compounds, the percentage change was evaluated and compared in order to correct for differences in the vehicle treated control cells. […]

The conditions of series [3]: cited from earlier work.
Series [4] concerns human primary adrenocortical cultures. Kind of series: Cortisol production in human primary adrenocortical cultures, comparison across cultures. Format: cell-based. On the procedure: as §1
Primary culture conditions for primary cultures were similar as described in the section ‘cell culture and compounds’, but with small adjustments: ACTH was used at a concentration of 85 pM (250 pg/mL), treatment was started 3-4 days after plating of the cells and cells were incubated for 3 days, and; for pituitary primary cultures, levoketoconazole and racemic ketoconazole were only tested at a concentration of 1 μM. Owing to a limited number of cells obtained from the specimens, not all experiments were carried out in every primary culture.
as §3, §4

Setting [5] is: six of the ten conditions with direct comparison in the same patient.

Like-named read-outs stand apart in the source and are kept apart here.

These results are taken from patent US12201632B2, “Levoketoconazole for treatment of congenital adrenal hyperplasia and primary aldosteronism” (Strongbridge Dublin Limited, priority 2018, dated 2025).

Regarding `CC(=O)N1CCN(c2ccc(OCC3COC(Cn4ccnc4)(c4ccc(Cl)cc4Cl)O3)cc2)CC1` (racemic) [racemic ketoconazole, Ketoconazole], the IC50 was 266 nM in series [1] (Homo sapiens, 72 h, CPA no. 2, basal condition, 3 days, read-out: IC50 inhibition of cortisol production); 138 nM in series [1] (Homo sapiens, 72 h, CPA no. 3, basal condition, 3 days, read-out: IC50 inhibition of cortisol production); 106 nM in series [2] (Homo sapiens, 72 h, EAS associated hyperplasia no. 1, ACTH (85 μM) stimulated condition, 3 days, read-out: IC50 inhibition of cortisol production); 26.2 nM in series [2] (Homo sapiens, 72 h, EAS associated hyperplasia no. 1, basal condition, 3 days, read-out: IC50 inhibition of cortisol production); 29.6 nM in series [2] (Homo sapiens, 72 h, EAS associated hyperplasia no. 2, basal condition, 3 days, read-out: IC50 inhibition of cortisol production); 611 nM in the series on HAC15 cells (Homo sapiens, 72 h). Further, in the series on AtT20 cells (Mus musculus, 168 h, AtT20, 7 days of treatment with 10 μM, corrected for cell amount, read-out: Maximal inhibition of ACTH secretion), the inhibition at 10 µM is 34%. In addition, the “accumulation in a subject's body over repeated dosing” value in series [3] is recorded as “accumulate in a subject's body over repeated dosing”. In series [4] (four remaining cultures), the “mean difference in IC50 between both compounds” value is on record as 5%. In series [4] (four remaining cultures), the “range of difference in IC50 between both compounds” value is recorded as 1-8%. In series [4] (setting [5]), the “mean increase IC50 compared to levoketoconazole” value is 52%. Moreover, in series [4] (setting [5]), the “range of increase IC50 compared to levoketoconazole” value is listed as 33-113%.

As to `CC(=O)N1CCN(c2ccc(OC[C@@H]3CO[C@@](Cn4ccnc4)(c4ccc(Cl)cc4Cl)O3)cc2)CC1` (relative stereo) [levoketoconazole, 2S,4R cis-1-acetyl-4-[4-[[2-(2,4-dichlorophenyl)-2-(1H-imidazol-1-ylmethyl)-1,3-dioxolan-4-yl]methoxyl]phenyl]piperazine], the IC50 in series [1] (CPA no. 1, basal condition, 3 days, read-out: IC50 inhibition of cortisol production) came out at 116 nM; in series [1] (CPA no. 2, basal condition, 3 days, read-out: IC50 inhibition of cortisol production) it was 125 nM; in series [1] (CPA no. 3, basal condition, 3 days, read-out: IC50 inhibition of cortisol production), 140 nM; in series [1] (CPA no. 4, basal condition, 3 days, read-out: IC50 inhibition of cortisol production), 63.1 nM; in series [1] (basal condition, ACA (n=4), read-out: mean IC50 cortisol production), 110 nM; in series [2] (EAS associated hyperplasia no. 1, ACTH (85 μM) stimulated condition, 3 days, read-out: IC50 inhibition of cortisol production), 79.9 nM. Further, the IC50 stood at 27.7 nM in series [2] (EAS associated hyperplasia no. 1, basal condition, 3 days, read-out: IC50 inhibition of cortisol production); 22 nM in series [2] (EAS associated hyperplasia no. 2, basal condition, 3 days, read-out: IC50 inhibition of cortisol production); 25.7 nM in series [2] (basal condition, EAS associated adrenal hyperplasia (n=2), read-out: mean IC50 cortisol production); 300 nM in the series on HAC15 cells. Also, the “Maximal inhibition of ACTH secretion” value with AtT20 cells (AtT20, 7 days of treatment with 10 μM, corrected for cell amount) is 38%. The “ACTH secretion corrected for cell amount” value in the series on AtT20 cells (AtT20, after 3 days of treatment) was “showed inhibition of ACTH secretion”. In addition, in series [3], the “accumulation in a subject's body over repeated dosing” value is “significantly less accumulation”. In addition, the “difference in IC50 value between patients and tissue specimens” value in series [4] (primary human adrenocortical cultures) was determined as 24 fold.
